The values that follow are results of earlier work, collected in patent US20240398684A1, “HIGH UV PROTECTION CLEANSING COMPOSITION” (Conopco, Inc., d/b/a UNILEVER, priority 2020, published 2024).

SMILES strings stand for the structures.

The conditions of the data set: Reference: Photochem. Photobiol. Sci., 2010,9, 464-469.
Turning to `O=S(=O)([O-])c1cc(S(=O)(=O)O)cc2[nH]c(-c3ccc(-c4nc5c(S(=O)(=O)[O-])cc(S(=O)(=O)O)cc5[nH]4)cc3)nc12.[Na+].[Na+]` [BD, Di sodium phenyl dibenzimidazole tetra sulfonate], the absorption maxima was 335 nm.
On to `O=S(=O)(O)c1ccc2[nH]c(-c3ccccc3)nc2c1` [PBSA, Phenyl benzimidazole sulphonic acid], for which the absorption maxima is reported as 302 nm.
Turning to `CC1(C)C2CCC1(CS(=O)(=O)O)C(=O)C2=Cc1ccc(C=C2C(=O)C3(CS(=O)(=O)O)CCC2C3(C)C)cc1` [TDSA, Terephthalylidene dicamphor sulfonic acid], the absorption maxima is recorded as 345 nm.
